Reference: US4956363A, “Treatment of cognitive and behavioral disorders associated with aging and with dementia syndromes” (U C B S.A., priority 1988, dated 1990)
“Also recorded” adds a separate entry of the source.

Columns and labels:
[1] = system: tremogenic effect of oxotremorine (central cholinergic activation); experiment: Potentiation of the central cholinergic (tremogenic) effect of oxotremorine; format: in vivo, mice (male NMRI)
Protocol: The degree of central cholinergic activation is measured by the tremogenic effect quantified by the following rating system:
score 1: slight and periodic occasional tremors;
score 2: moderate and slight tremors often repeated;
score 4: accentuated tremors, but interrupted by periods of calm;
score 6: very accentuated and almost continuous tremors.
(§1) Male NMRI mice (20 to 25 g) are divided into four groups of five animals, that is to say: one control group and three treated groups.
The compound to be tested is administered intraperitoneally (to the three treated groups) 20 minutes before the administration of the oxotremorine, at a dose which differs for each of the treated groups.
The oxotremorine is administered intraperitoneally to the treated groups and to the control group at a dose of 0.05 mg/kg dissolved in 10 ml/kg of physiological salt solution. […]
(§2) For each of the groups, the individual scores recorded at each observation period are summed: this enables to plot a curve showing the sum of the scores as a function of time, which is characteristic for each group.
(§3) The mean values of the areas under the curves obtained for each of the treated groups are compared with the mean value of the area under the curve corresponding to the control group and is subjected to statistical analysis by the Mann-Whitney method. From this comparison, "a minimum active dose" can be determined. […]

[2] = system: effects of scopolamine on the EEG, band from 6.4 to 9.6 Hz; experiment: Inhibition of the effects of scopolamine on the electroencephalogram (EEG); format: in vivo, rats (male albino Sprague-Dawley SPF); conditions: for Inhibition of the effects of scopolamine on the band from 6.4 to 9.6 Hz in the EEG: rats, i.p. at the dose (mg/kg) of the line in Table IV, scopolamine 0.5 mg/kg i.p.
Protocol: Male albino Sprague-Dawley SPF rats (160 to 200 g) are used in this test.
When the animals are 3 months old, 5 cortical electrodes are implanted permanently, aseptically and under a general anesthesia: one inert electrode, one left and one right frontal electrode, and one left and one right occipital electrode (P. ETEVENON, loc. cit.).
The test is carried out when the animals are about 15 months old. In the meantime, the animals are kept in individual cages. They are given water and food ad libitum and are subjected to a regular daily cycle comprising a period of darkness between 6 o'clock in the evening and 6 o'clock in the morning. At the same time, the animals are progressively acclimatized to the cages of the sound-proof cabin which they will subsequently occupy for recording of the electroencephalograms, as well as to the experimental conditions, by intraperitoneal administration of placebo. The products are administered immediately before the EEG is recorded.
The rats are divided into groups of 8 animals and 16 samples of the EEG spectra are recorded over 5 seconds (two EEG spectra per animal). The spectra obtained are then analyzed by computer (rapid Fourier transform), which enables the average of the 16 measurements performed to be determined for each group and the overall intensity of the EEG spectrum and the distribution of this intensity (in %) in the various frequency bands to be deduced for each animal.
This operation (recording of the spectra) is repeated 9 times (total duration: 121 minutes).

[3] = system: learning of the avoidance reflex; experiment: Multiple-trial passive avoidance: learning; format: in vivo, rats (male Sprague-Dawley); conditions: i.p. at the dose (mg/kg) of the line in Table V, 30 min before test; criterion 180 seconds on the mat
Protocol: To evaluate whether a compound can promote learning, the following test is carried out.
This experiment is repeated until the animal remains on the rubber mat for at least 180 seconds in order to avoid the electric shock. The learning is expressed by the average number of trials needed to reach a period of 180 seconds remaining on the mat.
A period of remaining on the rubber mat of 180 seconds is regarded as being the maximum performance which can be realized by the animal to avoid the electric shock. Rats which remain on the mat for this period have acquired the avoidance reflex and are replaced in their original cage without receiving the electric shock.
group 1 receives an intraperitoneal injection of physiological salt solution:
group 2 receives an intraperitoneal injection of the compound to be tested:
Columns 3 and 4 show the results obtained in the test used to evaluate the learning. The figures indicate the average number of trials needed for a control animal (group 1) or an animal treated (group 2) with the compound to learn to remain on the rubber mat for 180 seconds in order to avoid the electric shock. The results were analyzed by the Student test.

male NMRI mice = experiment: Toxicity, Irwin's test; format: in vivo; conditions: mice, i.p.; death of two animals out of three within 48 hours
Protocol: Progressive doses of the compound to be tested are administered intraperitoneally to groups of three mice until the lethal dose is reached (dose which causes the death of two animals out of three within 48 hours).

[4] = system: hyperactivity induced by scopolamine; experiment: Inhibition of hyperactivity induced by scopolamine; format: in vivo, rats (male Sprague-Dawley SPF); conditions: administered more than 15 minutes before the measurements; in words
[5] = system: hyperactivity induced by scopolamine; conditions: rats placed in a new environment; in words, literature; cited from earlier work
memory = conditions: in words, literature; cited from earlier work
[6] = system: amnesia induced by scopolamine; experiment: Multiple-trial passive avoidance: mnemic retention (amnesia induced by scopolamine)
Protocol: To this end, the method of multiple-trial passive avoidance has been used. This method is well-known for evaluating the effects which a product exerts on the memory and learning (A. FINE et al., Proc. Natl. Acad. Sci. U.S.A., 82, (1985), 5227-5230).
The test is carried out on male Sprague-Dawley rats (160-200 g). which are kept in standard cages throughout the experiment.
The apparatus used is a transparent square cage with 35 cm sides and 25 cm high, fitted with a grid floor which can be electrified. An insulating rubber mat (10×17 cm) is placed on the floor in one of the corners of the cage.
Each animal is subjected to four tests at times 0, 4, 24 and 28 hours. In the first test (time 0), the animal is placed on the rubber mat and the time which it takes to decide to leave this position to explore the cage is recorded. After 20 seconds of exploration, the rat receives an electric shock (3 seconds duration) in the paws, causing a flight reaction. The rat is immediately removed from the apparatus and replaced in its original cage. In the course of the three subsequent tests (times: 4, 24 and 28 hours), the animal is replaced on the rubber mat and the time taken to leave this position is recorded. When the four paws of the animal rest on the grid, it receives an electric shock and is immediately removed from the apparatus.
At the start of the experiment, the rats are divided into 4 homogeneous groups of 15 animals. Thirty minutes before each test, each group of animals is subjected to a predetermined treatment:
Groups 1 and 2 are used in the first experiment and groups 3 and 4 are used in the second experiment.
The differences observed are analyzed statistically by the Mann-Whitney method.

[7] = system: salivatory effect of oxotremorine (peripheral cholinergic activation); experiment: Potentiation of the peripheral cholinergic (salivatory) effect of oxotremorine; format: in vivo, mice (male NMRI); conditions: 20 minutes after administration at the minimum active dose; in words
Protocol: The degree of peripheral cholinergic activation is measured by the salivatory effect quantified by the following rating system:
score 1: a little saliva is found around the teeth;
score 2: the saliva forms a narrow band around the mouth;
score 4: the saliva wets a surface underneath the chin;
score 6: the saliva runs from the mouth, for example onto the forelegs.
The intermediate scores are not used, and the saliva is wiped away after each observation.
as §1
The compound to be tested is administered intraperitoneally (to the three treated groups) 20 minutes before the administration of the oxotremorine, at a dose which differs for each of the treated groups. […]
as §2, §3

| Compound | Inhibition of the effects of scopolamine on the band from 6.4 to 9.6 Hz in the EEG [2] | Learning, average number of trials (group 2) [3] | Lethal dose (male NMRI mice) | effect on exploratory activity [5] | effect on memory (memory) | further results |
| --- | --- | --- | --- | --- | --- | --- |
| O=C1CCCN1CC#CCN1CCCC1 [oxotremorine] |  |  |  |  |  | minimal effective dose ([1]; Mus musculus, ip, mice, i.p., approximate, read-out: minimum dose of oxotremorine which causes tremors and salivation): ~0.05 mg/kg |
| CCCc1nc(N)nc(N2CCOCC2)n1 [Compound 44, 2-Amino-4-morpholino-6-propyl-1,3,5-triazine] | 100% | 1.13 | 779 mg/kg |  |  |  |
| CNC(=O)Oc1ccc2c(c1)[C@]1(C)CCN(C)[C@@H]1N2C [physostigmine, reference compound] | 76.8% | 2.30 |  | counteracts the hyperactivity induced by scopolamine | an improvement in anemic disorders; also recorded: capable of combating the amnesia resulting from the administration of anticholinergic agents | effect on the EEG spectrum ([2]; scopolamine 0.5 mg/kg i.p. in rats, in words): counteracts these variations; activity of physostigmine on the hyperactivity induced by scopolamine [4]: inactive; Period of remaining on the mat, group 4, 4 hours ([6]; compound i.p. at the dose of the line + scopolamine 0.5 mg i.p., 4 h): 17.8 s; Period of remaining on the mat, group 4, 24 hours ([6]; compound i.p. at the dose of the line + scopolamine 0.5 mg i.p., 24 h): 56.2 s; Period of remaining on the mat, group 4, 28 hours ([6]; compound i.p. at the dose of the line + scopolamine 0.5 mg i.p., 28 h): 53.4 s; relation of active dose to side effects / toxic dose ([6]; dose active against the amnesing effect of scopolamine, in words): obtained at a dose which has side effects and is very close to the toxic dose; effect against the amnesing effect of scopolamine ([6]; in words): favorable action against the amnesing effect of scopolamine |
| COC(=O)C1=CCCN(C)C1 [arecoline, methyl 1,2,5,6-tetrahydro-1-methyl-3-pyridinecarboxylate] |  |  |  |  |  | potentiation of the tremogenic effect of oxotremorine ([1]; 20 minutes after administration at the minimum active dose, in words): no potentiation; potentiation of the salivatory effect of oxotremorine [7]: no potentiation |
| CCCc1nc(NC)nc(N2CCOCC2)n1 [Compound 45, 2-(Methylamino)-4-morpholino-6-propyl-1,3,5-triazine] | 91.7% | 2.00 | 821 mg/kg |  |  |  |
| CN1[C@@H]2C[C@@H](OC(=O)[C@H](CO)c3ccccc3)C[C@H]1[C@@H]1O[C@@H]12 [scopolamine] |  |  |  | induces exploratory hyperactivity | gives rise to memory deficiencies similar to those observed in elderly subjects |  |
